Laboratory results as given in PubChem BioAssay (NCI).
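Where inhibition never reached the appropriate level, the endpoint shown equals the highest concentration tested. Otherwise, values were interpolated linearly from a five-concentration, 48-hour dose response in 96-well plates. At the TGI there is no net growth.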 Where a SMILES comes first, the peptide text is derived from it. [ ]: non-standard residue; d: D form. The star is where a group is joined. ξ: configuration not given here. NMeF = CN[CH](Cc1ccccc1)C(=O)O; ξNMe2Val = CC(C)C(C(=O)*)N(C)C; NMeV = CN[CH](C(=O)O)C(C)C; ξNMeV = CNC(C(=O)O)C(C)C; Boc = CC(C)(C)OC(=O)*; OBn = c1ccc(CO*)cc1; OtBu = CC(C)(C)O*

Columns and labels:
Experiment in all cases: DTP human tumour cell line panel, 48 h
[1] = tested on: M19-MEL melanoma
[2] = tested on: LXFL 529 NSCLC
[3] = tested on: KM20L2 colon
[4] = tested on: HCT-15 colon
[5] = tested on: XF 498 CNS
[6] = tested on: DLD-1 colon
[7] = tested on: COLO 205 colon
[8] = tested on: OVCAR-3 ovarian
[9] = tested on: SNB-78 CNS
[10] = tested on: DMS 114 small cell lung
[11] = tested on: HOP-18 NSCLC
[12] = tested on: HCC-2998 colon
[13] = tested on: T-47D breast
[14] = tested on: BT-549 breast

SMILES	TGI [1]	TGI [2]	TGI [3]	TGI [4]	TGI [5]	TGI [6]	TGI [7]	TGI [8]	TGI [9]	TGI [10]	TGI [11]	TGI [12]	TGI [13]	TGI [14]
CC(C)C(C(=O)N(C)[C@H](C(=O)N1CCC[C@H]1C(=O)N(C)[C@@H](Cc1ccccc1)C(=O)OCc1ccccc1)C(C)C)N(C)C(=O)[C@@H](NC(=O)OC(C)(C)C)C(C)C (stereo partly specified) (Boc-V[ξNMeV][NMeV]P[NMeF]-OBn)	> 31.6 µM	> 100 µM	> 31.6 µM	> 31.6 µM	> 31.6 µM	> 31.6 µM	35.2 µM	> 100 µM	> 31.6 µM	> 31.6 µM	> 100 µM	–	–	–
CCCCCCCCCCCC[N+]12CC[N+](C)(CC1)CC2	70.9 µM	> 100 µM	85.9 µM	–	80 µM	> 100 µM	16.9 µM	> 100 µM	76 µM	44.6 µM	> 100 µM	23 µM	–	–
CC(=O)OCC1OC(n2c(=S)n(-c3ccccc3)c(=O)c3cc(Br)ccc32)C(OC(C)=O)C1OC(C)=O (stereo unspecified)	> 100 µM	> 100 µM	> 100 µM	> 100 µM	> 100 µM	> 100 µM	> 100 µM	> 100 µM	> 100 µM	> 100 µM	> 100 µM	> 100 µM	–	–
CC(=O)Nc1ccc(/C=c2\sc3nnc(-c4cccnc4)n3c2=O)cc1	37.4 µM	30.8 µM	38.6 µM	35.9 µM	–	40.7 µM	29.8 µM	34 µM	> 100 µM	32.4 µM	55.6 µM	35.8 µM	–	–
NC(=S)N1N=C2c3ccccc3CCC[C@H]2[C@@H]1c1ccccc1	> 100 µM	18.2 µM	5.22 µM	26.2 µM	16.5 µM	25.7 µM	6.32 µM	1.94 µM	61.9 µM	50.8 µM	–	14 µM	29.1 µM	19.7 µM
CC(C)C(C(=O)N(C)C(Cc1ccccc1)C(=O)N(C)C(C(=O)N(C)C(C(=O)N1CCCC1C(=O)OC(C)(C)C)C(C)C)C(C)C)N(C)C (stereo unspecified) (ξNMe2Val-[NMeF][NMeV][NMeV]P-OtBu; configuration not given here)	> 100 µM	> 100 µM	46.4 µM	> 100 µM	86.1 µM	–	> 100 µM	> 100 µM	–	> 100 µM	–	53.3 µM	–	–
COc1ccc(NC(=O)C(=O)Cc2ccc([N+](=O)[O-])c([N+](=O)[O-])c2CC(=O)C(=O)Nc2ccc(OC)cc2OC)c(OC)c1	> 100 µM	> 100 µM	> 100 µM	> 100 µM	–	> 100 µM	> 100 µM	> 100 µM	> 100 µM	> 100 µM	> 100 µM	> 100 µM	–	–
CN(C)CCC[N+]1=Nc2cccc3cccc(c23)N1	> 100 µM	> 100 µM	> 100 µM	> 100 µM	> 100 µM	35.8 µM	–	> 100 µM	> 100 µM	> 100 µM	> 100 µM	> 100 µM	–	–
Cc1nn2c(c1C#N)NNc1c-2sc(=N)nnc1=O	> 100 µM	> 100 µM	> 100 µM	–	–	> 100 µM	> 100 µM	> 100 µM	–	–	> 100 µM	–	–	–
Cc1ccc(NC(=O)C2C3CCC(O3)C2C(=O)O)cc1 (stereo unspecified)	> 100 µM	> 74.6 µM	> 57.8 µM	> 65.3 µM	> 77.8 µM	96.9 µM	> 59.8 µM	> 89.7 µM	> 100 µM	> 59.8 µM	> 100 µM	> 100 µM	–	–
N#COc1ccc(Oc2ccc(OC#N)cc2)cc1	> 100 µM	> 100 µM	> 100 µM	> 100 µM	> 100 µM	> 100 µM	54 µM	> 100 µM	> 100 µM	92.7 µM	> 100 µM	> 100 µM	–	–
COc1ccc(C2=Nc3ccccc3N=C(SC)C2)cc1	> 100 µM	> 100 µM	> 100 µM	> 100 µM	> 100 µM	> 100 µM	> 100 µM	> 100 µM	> 100 µM	> 100 µM	> 100 µM	74.4 µM	–	–
CC12CCc3ccccc3C1=NNC(=O)C2 (stereo unspecified)	> 100 µM	> 100 µM	> 100 µM	> 100 µM	> 100 µM	> 100 µM	> 100 µM	> 100 µM	> 100 µM	> 100 µM	> 100 µM	> 100 µM	–	–
CCCCCCCCCCCCCS(=O)(=O)NCC(N)=O	> 100 µM	> 100 µM	> 100 µM	> 100 µM	> 100 µM	> 100 µM	> 100 µM	> 100 µM	> 100 µM	> 100 µM	> 100 µM	> 100 µM	–	–
O=C1[C@@H]2C(c3ccccc3[N+](=O)[O-])=NO[C@@H]2C(=O)N1c1ccc(Cc2ccc(N3C(=O)[C@H]4C(c5ccccc5[N+](=O)[O-])=NO[C@H]4C3=O)cc2)cc1	–	> 100 µM	> 100 µM	> 100 µM	–	> 100 µM	> 100 µM	> 100 µM	> 100 µM	> 100 µM	> 100 µM	> 100 µM	–	–
CCCCOC(=O)NC(=O)c1cn(CCCOC(=O)CCCCCCCCC(=O)OCCCn2cc(C(=O)NC(=O)OCCCC)c(=O)n(C)c2=O)c(=O)n(C)c1=O	> 100 µM	> 100 µM	> 100 µM	> 100 µM	> 100 µM	> 100 µM	> 100 µM	> 100 µM	> 100 µM	> 100 µM	–	> 100 µM	–	–
COc1ccc([C@H]2CC3C(=O)N(c4ccc(OC)cc4)C(=O)C3c3[nH]c4ccccc4c32)cc1 (stereo partly specified)	> 100 µM	> 100 µM	> 100 µM	> 100 µM	95.9 µM	> 100 µM	> 100 µM	> 100 µM	> 100 µM	> 100 µM	–	> 100 µM	–	–
Brc1ccc(-c2cc3c(cc2C2SCCS2)OCO3)cc1	> 100 µM	> 100 µM	> 100 µM	> 100 µM	> 100 µM	> 100 µM	> 100 µM	75.9 µM	> 100 µM	> 100 µM	> 100 µM	> 100 µM	–	–
CCN(CC)c1c(C)nnn1C1OC(COC(C)=O)C(OC(C)=O)C(OC(C)=O)C1OC(C)=O (stereo unspecified)	> 100 µM	> 100 µM	> 100 µM	> 100 µM	–	> 100 µM	> 100 µM	> 100 µM	> 100 µM	> 100 µM	> 100 µM	> 100 µM	–	–
CSC(C1c2ccccc2N(C)c2[nH]c(=O)n(C)c(=O)c21)S(=O)(=O)c1ccc(C)cc1 (stereo unspecified)	> 100 µM	> 100 µM	–	> 100 µM	> 100 µM	> 100 µM	> 100 µM	> 100 µM	> 100 µM	> 100 µM	> 100 µM	> 100 µM	–	–
CCO/C(O)=c1/s/c(=C(\C#N)c2nc3ccccc3[nH]2)n(-c2ccccc2)c1=N	> 100 µM	> 100 µM	> 100 µM	> 100 µM	> 100 µM	> 100 µM	> 100 µM	> 100 µM	> 100 µM	–	–	–	–	–
